# Measurements from PubChem BioAssay (NCI).
#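 Where inhibition never reached the appropriate level, the endpoint shown equals the highest concentration tested. Otherwise, values were interpolated linearly from a five-concentration, 48-hour dose response in 96-well plates. TGI: concentration producing complete growth inhibition.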
# Experiments:
# Test in all cases: growth of human tumour cells (NCI), 48 h
# 786-0 renal = test system: 786-0 renal
# SK-OV-3 ovarian = test system: SK-OV-3 ovarian
# SNB-75 CNS = test system: SNB-75 CNS
# KM12 colon = test system: KM12 colon
# HCC-2998 colon = test system: HCC-2998 colon
# MDA-N = test system: MDA-N
# UACC-62 melanoma = test system: UACC-62 melanoma
# SK-MEL-2 melanoma = test system: SK-MEL-2 melanoma
# T-47D breast = test system: T-47D breast
# A549 NSCLC = test system: A549 NSCLC
# CAKI-1 renal = test system: CAKI-1 renal
# MDA-MB-435 = test system: MDA-MB-435
# LOX IMVI melanoma = test system: LOX IMVI melanoma
# NCI/ADR-RES ovarian = test system: NCI/ADR-RES ovarian
# OVCAR-5 ovarian = test system: OVCAR-5 ovarian
# HOP-62 NSCLC = test system: HOP-62 NSCLC
# NCI-H460 lung = test system: NCI-H460 lung
# ACHN renal = test system: ACHN renal
# IGROV1 ovarian = test system: IGROV1 ovarian
# OVCAR-3 ovarian = test system: OVCAR-3 ovarian
# UACC-257 melanoma = test system: UACC-257 melanoma
# HCT-15 colon = test system: HCT-15 colon
# CCRF-CEM leukemia = test system: CCRF-CEM leukemia
# SN12C renal = test system: SN12C renal
# SF-268 CNS = test system: SF-268 CNS
# U251 CNS = test system: U251 CNS
# SW-620 colon = test system: SW-620 colon
# SF-539 CNS = test system: SF-539 CNS
# HT29 colon = test system: HT29 colon
# SK-MEL-5 melanoma = test system: SK-MEL-5 melanoma
# NCI-H23 lung = test system: NCI-H23 lung
# SR leukemia = test system: SR leukemia
# OVCAR-4 ovarian = test system: OVCAR-4 ovarian
# MOLT-4 leukemia = test system: MOLT-4 leukemia
# MDA-MB-231 breast = test system: MDA-MB-231 breast
# COLO 205 colon = test system: COLO 205 colon
# HOP-92 NSCLC = test system: HOP-92 NSCLC
# PC-3 prostate = test system: PC-3 prostate
# SK-MEL-28 melanoma = test system: SK-MEL-28 melanoma
# EKVX NSCLC = test system: EKVX NSCLC
# RXF 393 renal = test system: RXF 393 renal
# HCT-116 colon = test system: HCT-116 colon
# SNB-19 CNS = test system: SNB-19 CNS
# RPMI-8226 leukemia = test system: RPMI-8226 leukemia
# NCI-H226 lung = test system: NCI-H226 lung
# MCF7 breast = test system: MCF7 breast
# NCI-H522 lung = test system: NCI-H522 lung
# OVCAR-8 ovarian = test system: OVCAR-8 ovarian
# UO-31 renal = test system: UO-31 renal
# K-562 leukemia = test system: K-562 leukemia
# TK-10 renal = test system: TK-10 renal
# HS 578T breast = test system: HS 578T breast
# SF-295 CNS = test system: SF-295 CNS
# DU-145 prostate = test system: DU-145 prostate
smiles,measurement,setting,value
CCOC(=O)/C=C(/C(=O)OCC)n1cc(C)c(=O)n(Cc2cn(CCCCOC(C)=O)nn2)c1=O,TGI,786-0 renal,> 100 µM
same,TGI,SK-OV-3 ovarian,> 100 µM
same,TGI,SNB-75 CNS,32.6 µM
same,TGI,KM12 colon,29.5 µM
same,TGI,HCC-2998 colon,36.6 µM
same,TGI,MDA-N,> 100 µM
same,TGI,UACC-62 melanoma,30.5 µM
same,TGI,SK-MEL-2 melanoma,45.1 µM
same,TGI,T-47D breast,> 100 µM
same,TGI,A549 NSCLC,56.1 µM
same,TGI,CAKI-1 renal,6.46 µM
same,TGI,MDA-MB-435,28.4 µM
same,TGI,LOX IMVI melanoma,49.5 µM
same,TGI,NCI/ADR-RES ovarian,65.6 µM
same,TGI,OVCAR-5 ovarian,41 µM
same,TGI,HOP-62 NSCLC,> 100 µM
same,TGI,NCI-H460 lung,34.1 µM
same,TGI,ACHN renal,16.7 µM
same,TGI,IGROV1 ovarian,29.6 µM
same,TGI,OVCAR-3 ovarian,33.4 µM
same,TGI,UACC-257 melanoma,36.8 µM
same,TGI,HCT-15 colon,> 100 µM
same,TGI,CCRF-CEM leukemia,2.31 µM
same,TGI,SN12C renal,91.7 µM
same,TGI,SF-268 CNS,38.7 µM
same,TGI,U251 CNS,45.3 µM
same,TGI,SW-620 colon,> 100 µM
same,TGI,SF-539 CNS,19.1 µM
same,TGI,HT29 colon,20.5 µM
same,TGI,SK-MEL-5 melanoma,> 100 µM
same,TGI,NCI-H23 lung,31.9 µM
same,TGI,SR leukemia,62.4 µM
same,TGI,OVCAR-4 ovarian,39.5 µM
same,TGI,MOLT-4 leukemia,24.9 µM
same,TGI,MDA-MB-231 breast,65.4 µM
same,TGI,COLO 205 colon,> 100 µM
same,TGI,HOP-92 NSCLC,3.11 µM
same,TGI,PC-3 prostate,40.3 µM
same,TGI,SK-MEL-28 melanoma,35.2 µM
same,TGI,EKVX NSCLC,22.7 µM
same,TGI,RXF 393 renal,> 100 µM
same,TGI,HCT-116 colon,65 µM
same,TGI,SNB-19 CNS,41.9 µM
same,TGI,RPMI-8226 leukemia,25.6 µM
same,TGI,NCI-H226 lung,37.1 µM
same,TGI,MCF7 breast,42.2 µM
same,TGI,NCI-H522 lung,4.53 µM
same,TGI,OVCAR-8 ovarian,25.8 µM
same,TGI,UO-31 renal,28.3 µM
same,TGI,K-562 leukemia,> 100 µM
same,TGI,TK-10 renal,16.7 µM
same,TGI,HS 578T breast,59 µM
same,TGI,SF-295 CNS,> 100 µM
same,TGI,DU-145 prostate,> 100 µM
